Laboratory results: the supplement of paper PMC10307832

The cell lines below were run with CC(C)(C)c1nc(-c2cccc(NS(=O)(=O)c3c(F)cccc3F)c2F)c(-c2ccnc(N)n2)s1 [Dabrafenib] + C[C@@H](Oc1cc(-c2cnn(C3CCNCC3)c2)cnc1N)c1c(Cl)ccc(F)c1Cl [Crizotinib] (partner 1 µM) (assay: relative viability (nuclei count vs DMSO), 5 days (fraction); higher = more cells survive). Details: first compound 0.3 µM.
How it was run: (§1)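 Lung cancer cell lines, seeded in 1536-well plates, were treated the following day by pin tool with a single drug or with five library-drug doses (not always all listed) in √10 steps on top of a fixed anchor-drug dose. Cells were fixed and nuclei stained in one step after 5 days, and nuclei were counted. Relative viability is the nuclei count for treated wells divided by that for vehicle wells, reported as medians of duplicate plates.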

| Cell Line | relative viability |
| --- | --- |
| COR-L23 | 0.55 |
| NCI-H1437 | 0.978 |
| RERF-LC-KJ | 0.846 |
| NCI-H1734 | 0.687 |
| BEN | 1.09 |
| NCI-H460 | 0.899 |
| H3255 | 0.906 |
| SK-LU-1 | 0.891 |
| NCI-H23 | 0.495 |

What follows are cell lines tested with CC(C)(C)c1nc(-c2cccc(NS(=O)(=O)c3c(F)cccc3F)c2F)c(-c2ccnc(N)n2)s1 [Dabrafenib] + C[C@]1(O)C[C@@H](c2nc(-c3ccc4ccc(-c5ccccc5)nc4c3)c3c(N)nccn32)C1 [Linsitinib] (partner 1 µM) in the same assay as above. Details: first compound 0.003 µM.
How it was run: as §1

| Cell Line | relative viability |
| --- | --- |
| EMC-BAC-2 | 0.773 |
| UMC-11 | 1.12 |
| NCI-H596 | 1 |
| HCC-827 | 0.905 |
| COR-L 105 | 0.959 |
| NCI-H2126 | 0.698 |
| HCC-44 | 0.624 |
| NCI-H1651 | 0.962 |
| NCI-H1755 | 0.917 |
| PC-14 | 0.956 |
| HCC-15 | 0.851 |
| LU99A | 0.542 |
| EKVX | 0.997 |
| COR-L23 | 0.997 |
| NCI-H1437 | 1.03 |
| RERF-LC-KJ | 0.876 |
| NCI-H460 | 0.84 |
| H3255 | 0.944 |
| SK-LU-1 | 0.799 |

Same assay, conditions: first compound 0.009487 µM

| Cell Line | relative viability |
| --- | --- |
| EMC-BAC-2 | 0.825 |
| UMC-11 | 1.09 |
| NCI-H650 | 1.27 |
| NCI-H596 | 1.14 |
| HCC-827 | 0.964 |
| COR-L 105 | 0.943 |
| NCI-H2126 | 0.725 |
| NCI-H647 | 1.04 |
| LOU-NH91 | 1.15 |
| HCC-78 | 0.694 |
| HCC-44 | 0.706 |
| NCI-H1651 | 1.01 |
| NCI-H1755 | 0.984 |
| HOP-62 | 1.07 |
| PC-14 | 1.03 |
| A-427 | 1.13 |
| NCI-H1355 | 0.858 |
| NCI-H1792 | 0.599 |
| HCC-15 | 0.996 |
| LU99A | 0.532 |
| EKVX | 1.17 |
| COR-L23 | 0.974 |
| NCI-H1437 | 0.989 |
| RERF-LC-KJ | 0.989 |
| NCI-H1734 | 0.924 |
| BEN | 0.986 |
| NCI-H460 | 0.952 |
| H3255 | 1.06 |
| SK-LU-1 | 1 |
| NCI-H23 | 0.67 |

Same assay, conditions: first compound 0.03 µM

| Cell Line | relative viability |
| --- | --- |
| EMC-BAC-2 | 0.616 |
| UMC-11 | 0.985 |
| NCI-H650 | 0.769 |
| NCI-H596 | 0.796 |
| HCC-827 | 0.96 |
| COR-L 105 | 0.908 |
| NCI-H2126 | 0.681 |
| NCI-H647 | 1.21 |
| LOU-NH91 | 0.93 |
| HCC-78 | 0.442 |
| HCC-44 | 0.822 |
| NCI-H1651 | 0.833 |
| NCI-H1755 | 0.887 |
| HOP-62 | 0.804 |
| PC-14 | 0.957 |
| A-427 | 1 |
| NCI-H1355 | 0.682 |
| NCI-H1792 | 0.485 |
| HCC-15 | 0.917 |
| LU99A | 0.484 |
| EKVX | 0.933 |
| COR-L23 | 0.843 |
| NCI-H1437 | 1.07 |
| RERF-LC-KJ | 0.871 |
| NCI-H1734 | 0.602 |
| NCI-H460 | 0.68 |
| H3255 | 1.01 |
| SK-LU-1 | 0.813 |
| NCI-H23 | 0.553 |

Same assay, conditions: first compound 0.09487 µM

| Cell Line | relative viability |
| --- | --- |
| EMC-BAC-2 | 0.838 |
| UMC-11 | 0.982 |
| NCI-H650 | 0.43 |
| NCI-H596 | 1.08 |
| HCC-827 | 0.998 |
| COR-L 105 | 0.88 |
| NCI-H2126 | 0.757 |
| NCI-H647 | 1.17 |
| LOU-NH91 | 0.91 |
| HCC-78 | 0.45 |
| HCC-44 | 0.605 |
| NCI-H1651 | 0.971 |
| NCI-H1755 | 0.975 |
| HOP-62 | 0.831 |
| PC-14 | 0.975 |
| A-427 | 0.949 |
| NCI-H1792 | 0.528 |
| HCC-15 | 0.821 |
| LU99A | 0.476 |
| EKVX | 0.866 |
| COR-L23 | 0.886 |
| NCI-H1437 | 0.974 |
| RERF-LC-KJ | 0.83 |
| NCI-H1734 | 0.701 |
| BEN | 0.883 |
| NCI-H460 | 0.757 |
| H3255 | 0.832 |
| SK-LU-1 | 0.968 |
| NCI-H23 | 0.645 |

Same assay, conditions: first compound 0.3 µM

| Cell Line | relative viability |
| --- | --- |
| EMC-BAC-2 | 0.851 |
| UMC-11 | 1.03 |
| NCI-H650 | 0.516 |
| NCI-H596 | 1.14 |
| HCC-827 | 0.974 |
| COR-L 105 | 1.07 |
| NCI-H2126 | 0.715 |
| NCI-H647 | 1.01 |
| LOU-NH91 | 0.944 |
| HCC-78 | 0.628 |
| HCC-44 | 0.701 |
| NCI-H1651 | 0.989 |
| NCI-H1755 | 0.99 |
| HOP-62 | 0.977 |
| PC-14 | 0.984 |
| A-427 | 1.1 |
| NCI-H1355 | 0.823 |
| NCI-H1792 | 0.394 |
| HCC-15 | 0.951 |
| LU99A | 0.476 |
| EKVX | 1.13 |
| COR-L23 | 0.883 |
| NCI-H1437 | 1.07 |
| RERF-LC-KJ | 1.01 |
| NCI-H1734 | 0.893 |
| BEN | 0.938 |
| NCI-H460 | 0.826 |
| H3255 | 1.03 |
| SK-LU-1 | 0.833 |
| NCI-H23 | 0.547 |

What follows are cell lines tested with NC(=O)c1ccc(N(C(N)=O)c2c(F)cccc2F)nc1-c1ccc(F)cc1F [VX-702] + COc1cccc2cc(-c3nc([C@H]4CC[C@H](C(=O)O)CC4)n4ncnc(N)c34)[nH]c12 [OSI-027] (partner 0.5 µM) in the same assay as above. Details: first compound 0.02 µM.
How it was run: as §1

| Cell Line | relative viability |
| --- | --- |
| EMC-BAC-2 | 0.372 |
| UMC-11 | 0.482 |
| NCI-H650 | 0.562 |
| NCI-H596 | 0.807 |
| HCC-827 | 0.828 |
| COR-L 105 | 0.661 |
| NCI-H2126 | 0.774 |
| NCI-H647 | 0.719 |
| LOU-NH91 | 0.767 |
| HCC-78 | 0.364 |
| HCC-44 | 0.48 |
| NCI-H1651 | 0.733 |
| NCI-H1755 | 0.857 |
| HOP-62 | 0.88 |
| PC-14 | 0.893 |
| A-427 | 0.4 |
| NCI-H1355 | 0.419 |
| NCI-H1792 | 0.667 |
| HCC-15 | 0.659 |
| LU99A | 0.339 |
| EKVX | 0.811 |
| COR-L23 | 0.989 |
| NCI-H1437 | 0.885 |
| RERF-LC-KJ | 0.608 |
| NCI-H1734 | 0.635 |
| BEN | 0.31 |
| NCI-H460 | 0.712 |
| H3255 | 0.666 |
| SK-LU-1 | 0.386 |
| NCI-H23 | 0.604 |

Same assay, conditions: first compound 0.2 µM

| Cell Line | relative viability |
| --- | --- |
| EMC-BAC-2 | 0.404 |
| UMC-11 | 0.446 |
| NCI-H596 | 0.737 |
| HCC-827 | 0.839 |
| COR-L 105 | 0.679 |
| NCI-H2126 | 0.593 |
| NCI-H647 | 0.997 |
| LOU-NH91 | 0.734 |
| HCC-78 | 0.358 |
| HCC-44 | 0.433 |
| NCI-H1651 | 0.685 |
| NCI-H1755 | 0.829 |
| HOP-62 | 0.859 |
| PC-14 | 0.966 |
| A-427 | 0.447 |
| NCI-H1355 | 0.427 |
| NCI-H1792 | 0.669 |
| HCC-15 | 0.661 |
| LU99A | 0.323 |
| EKVX | 0.607 |
| COR-L23 | 0.75 |
| NCI-H1437 | 0.843 |
| RERF-LC-KJ | 0.547 |
| NCI-H1734 | 0.591 |
| BEN | 0.298 |
| NCI-H460 | 0.644 |
| H3255 | 0.684 |
| SK-LU-1 | 0.341 |
| NCI-H23 | 0.643 |

Same assay, conditions: first compound 0.6325 µM

| Cell Line | relative viability |
| --- | --- |
| EMC-BAC-2 | 0.355 |
| UMC-11 | 0.458 |
| NCI-H650 | 0.567 |
| NCI-H596 | 0.797 |
| HCC-827 | 0.688 |
| COR-L 105 | 0.688 |
| NCI-H2126 | 0.693 |
| NCI-H647 | 0.709 |
| LOU-NH91 | 0.751 |
| HCC-78 | 0.311 |
| HCC-44 | 0.491 |
| NCI-H1651 | 0.786 |
| NCI-H1755 | 0.721 |
| HOP-62 | 0.831 |
| PC-14 | 0.849 |
| A-427 | 0.427 |
| NCI-H1355 | 0.371 |
| NCI-H1792 | 0.682 |
| HCC-15 | 0.69 |
| LU99A | 0.312 |
| EKVX | 0.675 |
| COR-L23 | 0.766 |
| NCI-H1437 | 0.977 |
| RERF-LC-KJ | 0.57 |
| NCI-H1734 | 0.527 |
| BEN | 0.315 |
| NCI-H460 | 0.693 |
| H3255 | 0.541 |
| SK-LU-1 | 0.339 |
| NCI-H23 | 0.688 |

Same assay, conditions: first compound 2 µM

| Cell Line | relative viability |
| --- | --- |
| EMC-BAC-2 | 0.313 |
| UMC-11 | 0.533 |
| NCI-H650 | 0.595 |
| NCI-H596 | 0.823 |
| HCC-827 | 0.273 |
| COR-L 105 | 0.517 |
| NCI-H2126 | 0.713 |
| NCI-H647 | 0.662 |
| LOU-NH91 | 0.528 |
| HCC-78 | 0.32 |
| HCC-44 | 0.485 |
| NCI-H1651 | 0.652 |
| NCI-H1755 | 0.718 |
| HOP-62 | 0.982 |
| PC-14 | 0.806 |
| A-427 | 0.352 |
| NCI-H1355 | 0.405 |
| NCI-H1792 | 0.683 |
| HCC-15 | 0.702 |
| LU99A | 0.283 |
| EKVX | 0.668 |
| COR-L23 | 0.961 |
| NCI-H1437 | 0.987 |
| RERF-LC-KJ | 0.534 |
| NCI-H1734 | 0.45 |
| BEN | 0.328 |
| NCI-H460 | 0.55 |
| H3255 | 0.63 |
| SK-LU-1 | 0.354 |
| NCI-H23 | 0.559 |
